Data: patent US20060069132A1, “Azolecarboxamide herbicides” (priority 2004, published 2006)

Columns and labels:
large crabgrass = assay: Test B pre-/postemergence herbicide test; type: in vivo, Digitaria sanguinalis; details: for Crabgrass, Large plant response rating: postemergence
Summary of the method: (§1)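 Flooded paddy rice and barnyardgrass were treated at the 2-leaf stage; upland plantings received compound either on sown seed or on 1- to 4-leaf seedlings. All were kept 13–15 days in a greenhouse and scored visually, 0–100, relative to untreated plants.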

[1] = system: small flower umbrella sedge; assay: Test B flooded paddy test; type: in vivo, Cyperus difformis; details: 1000 g ai/ha, scale 0 to 100 (0 no effect, 100 complete control)
Summary of the method: (§2)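 Visual ratings, 0 (no effect) to 100 (complete control), made versus controls after 13–15 d greenhouse. Paddy plants treated at 2-leaf stage; postemergence plants at 1- to 4-leaf stage, 2–18 cm tall.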

pigweed = assay: Test B pre-/postemergence herbicide test; type: in vivo, Amaranthus retroflexus; details: for Pigweed plant response rating: postemergence
Summary of the method: as §1

lambsquarters = assay: Test B pre-/postemergence herbicide test; type: in vivo, Chenopodium album; details: for Lambsquarters plant response rating: postemergence
Summary of the method: as §1

wild oat = assay: Test B postemergence herbicide test; type: in vivo, Avena fatua; details: postemergence
Summary of the method: (§3)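 After treating 2-leaf paddy plants or 2–18 cm postemergence plants (1 to 4 leaves) with formulated chemical, researchers kept them in a greenhouse for 13–15 days. Effects were judged visually versus controls: 0 indicates none, 100 total control.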

morningglory = assay: Test B pre-/postemergence herbicide test; type: in vivo, Ipomoea coccinea; details: for Morningglory plant response rating: postemergence
Summary of the method: (§4)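 Visual rating, 0 (no effect) to 100 (complete control), versus untreated controls after 13–15 d in greenhouse. Pre- and postemergence applications (postemergence plants 2–18 cm, 1–4 leaves); flooded paddy arm at 2-leaf stage. Compounds in non-phytotoxic solvent plus surfactant.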

corn = assay: Test B pre-/postemergence herbicide test; type: in vivo, Zea mays; details: for Corn plant response rating: postemergence
Summary of the method: as §1

barnyardgrass [2] = assay: Test B flooded paddy test; type: in vivo, Echinochloa crus-galli; details: 1000 g ai/ha, scale 0 to 100 (0 no effect, 100 complete control)
Summary of the method: as §2

barnyardgrass [3] = assay: Test B pre-/postemergence herbicide test; type: in vivo, Echinochloa crus-galli; details: for Barnyardgrass plant response rating: postemergence
Summary of the method: as §4

ducksalad = assay: Test B flooded paddy test; type: in vivo, Heteranthera limosa; details: 1000 g ai/ha, scale 0 to 100 (0 no effect, 100 complete control)
Summary of the method: as §2

cocklebur = assay: Test B pre-/postemergence herbicide test; type: in vivo, Xanthium strumarium; details: for Cocklebur plant response rating: postemergence
Summary of the method: as §4

giant foxtail = assay: Test B pre-/postemergence herbicide test; type: in vivo, Setaria faberi; details: for Foxtail, Giant plant response rating: postemergence
Summary of the method: as §1

blackgrass = assay: Test B postemergence herbicide test; type: in vivo, Alopecurus myosuroides; details: postemergence
Summary of the method: as §2

velvetleaf = assay: Test B pre-/postemergence herbicide test; type: in vivo, Abutilon theophrasti; details: for Velvetleaf plant response rating: postemergence
Summary of the method: as §1

rice = assay: Test B flooded paddy test; type: in vivo, Oryza sativa; details: 1000 g ai/ha, scale 0 to 100 (0 no effect, 100 complete control)
Summary of the method: as §3

[4] = 125 g ai/ha, 0 = no effect, 100 = complete control, preemergence
[5] = 125 g ai/ha, visual rating, scale 0 (no effect) to 100 (complete control)
[6] = 500 g ai/ha, visual rating, 0 = no effect, 100 = complete control, preemergence
[7] = 500 g ai/ha, scale 0 to 100, 0 is no effect, 100 is complete control
[8] = 125 g ai/ha, 0 is no effect, 100 is complete control, preemergence

CCN1N=C(C(C)(C)C)CC1C(=O)Nc1cc(C(=O)N2CCCC2)ccc1F (racemic) [Compound 309]
Crabgrass, Large plant response rating (0 to 100 scale) (large crabgrass; [4]): 60
Crabgrass, Large plant response rating (large crabgrass; [5]): 0
Plant response rating, Crabgrass, Large (large crabgrass; [6]): 100
Crabgrass, Large plant response rating (large crabgrass; [7]): 40
Sedge, Umbrella plant response rating [1]: 80
Pigweed plant response rating (0 to 100 scale) (pigweed; [4]): 70
Pigweed plant response rating (pigweed; [5]): 50
Plant response rating, Pigweed (pigweed; [6]): 100
Pigweed plant response rating (pigweed; [7]): 70
Lambsquarters plant response rating (0 to 100 scale) (lambsquarters; [4]): 90
Lambsquarters plant response rating (lambsquarters; [5]): 40
Plant response rating, Lambsquarters (lambsquarters; [6]): 90
Lambsquarters plant response rating (lambsquarters; [7]): 80
Oat, Wild plant response rating (wild oat; [5]): 20
Oat, Wild plant response rating (wild oat; [7]): 40
Morningglory plant response rating (0 to 100 scale) (morningglory; [4]): 0
Morningglory plant response rating (morningglory; [5]): 0
Plant response rating, Morningglory (morningglory; [6]): 0
Morningglory plant response rating (morningglory; [7]): 40
Corn plant response rating (0 to 100 scale) (corn; [4]): 60
Corn plant response rating (corn; [5]): 20
Plant response rating, Corn (corn; [6]): 90
Corn plant response rating (corn; [7]): 60
Barnyardgrass plant response rating (barnyardgrass [2]): 90
Barnyardgrass plant response rating (0 to 100 scale) (barnyardgrass [3]; [4]): 80
Barnyardgrass plant response rating (barnyardgrass [3]; [5]): 20
Plant response rating, Barnyardgrass (barnyardgrass [3]; [6]): 100
Barnyardgrass plant response rating (barnyardgrass [3]; [7]): 40
Ducksalad plant response rating (ducksalad): 90
Cocklebur plant response rating (0 to 100 scale) (cocklebur; [4]): 30
Cocklebur plant response rating (cocklebur; [5]): 40
Plant response rating, Cocklebur (cocklebur; [6]): 80
Cocklebur plant response rating (cocklebur; [7]): 70
Foxtail, Giant plant response rating (0 to 100 scale) (giant foxtail; [4]): 80
Foxtail, Giant plant response rating (giant foxtail; [5]): 20
Plant response rating, Foxtail, Giant (giant foxtail; [6]): 100
Foxtail, Giant plant response rating (giant foxtail; [7]): 40
Blackgrass plant response rating (blackgrass; [5]): 10
Blackgrass plant response rating (blackgrass; [7]): 30
Velvetleaf plant response rating (velvetleaf; [5]): 20
Plant response rating, Velvetleaf (velvetleaf; [6]): 100
Velvetleaf plant response rating (velvetleaf; [7]): 40
Rice plant response rating (rice): 80

CCC1=NN(C(C)(C)C)CC1C(=O)Nc1cc(C(=O)N2CC=CC2)ccc1F (racemic) [Compound 340]
Plant response rating (0 to 100 scale), Crabgrass, Large (large crabgrass; [8]): 80
Crabgrass, Large plant response rating (large crabgrass; [5]): 10
Plant response rating, Crabgrass, Large (large crabgrass; [6]): 100
Crabgrass, Large plant response rating (large crabgrass; [7]): 20
Sedge, Umbrella plant response rating [1]: 80
Plant response rating (0 to 100 scale), Pigweed (pigweed; [8]): 100
Pigweed plant response rating (pigweed; [5]): 50
Plant response rating, Pigweed (pigweed; [6]): 100
Pigweed plant response rating (pigweed; [7]): 80
Plant response rating (0 to 100 scale), Lambsquarters (lambsquarters; [8]): 90
Lambsquarters plant response rating (lambsquarters; [5]): 30
Plant response rating, Lambsquarters (lambsquarters; [6]): 100
Lambsquarters plant response rating (lambsquarters; [7]): 70
Oat, Wild plant response rating (wild oat; [5]): 20
Oat, Wild plant response rating (wild oat; [7]): 30
Plant response rating (0 to 100 scale), Morningglory (morningglory; [8]): 30
Morningglory plant response rating (morningglory; [5]): 10
Morningglory plant response rating (morningglory; [7]): 40
Corn plant response rating (corn; [5]): 0
Corn plant response rating (corn; [7]): 20
Barnyardgrass plant response rating (barnyardgrass [2]): 90
Plant response rating (0 to 100 scale), Barnyardgrass (barnyardgrass [3]; [8]): 80
Barnyardgrass plant response rating (barnyardgrass [3]; [5]): 10
Plant response rating, Barnyardgrass (barnyardgrass [3]; [6]): 100
Barnyardgrass plant response rating (barnyardgrass [3]; [7]): 20
Ducksalad plant response rating (ducksalad): 90
Plant response rating (0 to 100 scale), Cocklebur (cocklebur; [8]): 20
Cocklebur plant response rating (cocklebur; [5]): 0
Plant response rating, Cocklebur (cocklebur; [6]): 50
Cocklebur plant response rating (cocklebur; [7]): 20
Plant response rating (0 to 100 scale), Foxtail, Giant (giant foxtail; [8]): 60
Foxtail, Giant plant response rating (giant foxtail; [5]): 20
Plant response rating, Foxtail, Giant (giant foxtail; [6]): 100
Foxtail, Giant plant response rating (giant foxtail; [7]): 40
Blackgrass plant response rating (blackgrass; [5]): 20
Blackgrass plant response rating (blackgrass; [7]): 30
Plant response rating (0 to 100 scale), Velvetleaf (velvetleaf; [8]): 70
Velvetleaf plant response rating (velvetleaf; [5]): 20
Velvetleaf plant response rating (velvetleaf; [7]): 40
Rice plant response rating (rice): 80
